This note sets out measurements from patent publication US10683278B2 (JINAN UNIVERSITY, priority 2015, dated 2020).

The test system of test [1] is Molm-13 cells. The experiment in a line: Inhibition of proliferation of Molm-13 cells (CCK-8). It is filed as cell-based. To be noted: Homo sapiens, 72 h, mean±standard deviation of two independent tests. As for the experimental part: [Worded in the source for another cell line; this cell line is reported under the same test.] (§1) 12000 g of compounds were centrifuged for 5 min, DMSO was added to make a 10^−2M stock solution, vortexed uniformly and sonicated for 10 min for standby application, and stored at −40° C. The compounds were diluted from the stock solution with saline to 10 times the concentration to be tested (concentration of DMSO in the system being no more than 0.5%) during the test.
(§2) The inhibitory effect of the compounds on the proliferation of MV4-11 cells was detected using a CCK-8 cell counting kit (Dojindo). The specific steps are as follows: the MV4-11 cells in logarithmic growth phase were seeded into a 96-well culture plate at a suitable density in 90 μL/well, cultured overnight, compounds at different concentrations were then added and acted on cells for 72 hr, and the solvent control group (negative control) was set up. The effect of the compounds on cell proliferation was detected using a CCK-8 cell counting kit (Dojindo) after the compounds had acted on the cells for 72 h. 10 μL of CCK-8 reagent was added to each well, same was placed in an incubator at 37° C. for 2-4 hours, and the reading from the full-wavelength microwell plate ELIASA SpectraMax 190 was performed with a wavelength of 450 nm.
(§3) IC50 value was calculated using a software included with ELIASA by the four-parameter regression.
(§4) IC50 for the inhibition of the compounds on each stain of cells was derived from two independent repeated tests, and the results are shown as the mean±standard deviation.

The target of test [2] is T1, FLT-3 kinase domain recombinant protein (Homo sapiens, UniProt P36888).
T1 construct: 50 μL FLT-3 kinase domain recombinant protein diluted with reaction buffer to initiate the reaction
T1 sequence (P36888 610-943 limits assumed): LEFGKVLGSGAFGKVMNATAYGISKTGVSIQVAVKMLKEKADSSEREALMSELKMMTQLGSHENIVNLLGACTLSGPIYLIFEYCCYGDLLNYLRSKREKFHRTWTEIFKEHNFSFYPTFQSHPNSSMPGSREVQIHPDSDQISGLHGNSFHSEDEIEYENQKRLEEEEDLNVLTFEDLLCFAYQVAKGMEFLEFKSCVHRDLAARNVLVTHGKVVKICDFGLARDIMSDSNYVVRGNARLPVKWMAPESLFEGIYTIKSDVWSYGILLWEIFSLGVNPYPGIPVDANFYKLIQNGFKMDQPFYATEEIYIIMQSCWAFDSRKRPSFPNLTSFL
The experiment in a line: Inhibition rate on FLT3 kinase (ELISA). It is filed as biochemical. The note with it: two values per compound; for inhibition at 0.01 µM / inhibition at 0.1 µM / inhibition at 1 µM: read-out: Inhibition rate (%) against receptor tyrosine kinase FLT-3. An outline of the steps:
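Recombinant FLT-3 kinase domain phosphorylated coated Poly(Glu,Tyr) 4:1 with ATP in HEPES pH 7.4 buffer with MgCl2, MnCl2, Na3VO4, DTT, 1 h at 37 °C; 1% DMSO final. Phosphotyrosine detected with PY99 and HRP anti-mouse antibody, OPD development, absorbance at 490 nm.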
(In general: In an ELISA, binding on a coated surface is turned into a signal by an enzyme label.)

Test [3] relates to MV4-11 cells. The experiment in a line: Inhibition of proliferation of MV4-11 cells (CCK-8). It is filed as cell-based. The note with it: Homo sapiens, 72 h, mean±standard deviation of two independent tests. Here is the method: as §1, §2, §3, §4

As to `COc1cc2ncnc(Oc3ccc(NC(=O)c4cn5c6c(c(N7CCC(O)CC7)c(F)cc6c4=O)CCC5C)cc3F)c2cc1OC` (stereo not drawn) [TL4830031, N-(4-((6,7-dimethoxyquinazolin-4-yl)oxy)-3-fluorophenyl)-9-fluoro-8-(4-hydroxypiperidin-1-yl)-5-methyl-1-oxo-1,5,6,7-tetrahydropyrido[3,2,1-ij]quinoline-2-carboxamide], the IC50 (in general, the concentration needed to halve the response being measured) in test [1] is 239 ± 21.9 nM; in test [3], above 500 nM. Further, the “Inhibition rate (%) against receptor tyrosine kinase FLT-3” value (from here on “Inhibition rate (%)”) in test [2] (compound 10 nM, 0.01 µM) was 57.9%; in test [2] (compound 100 nM, 0.1 µM) it was 65.8%; in test [2] (compound 1000 nM, 1 µM), 76.4%. Besides, the inhibition (usually the drop in the measured response relative to a control, in per cent) at 0.01 µM in test [2] (compound 10 nM) is 56.8%. Further, the inhibition at 0.1 µM in test [2] (compound 100 nM) was 71.4%. Also, in test [2] (compound 1000 nM), the inhibition at 1 µM amounted to 79.5%.

For the molecule `CCc1ccc2c(c1)c(=O)c(C(=O)Nc1ccc(Oc3ncnc4[nH]cc(-c5ccccc5)c34)c(F)c1)c(C)n2C` [TL4800075, 6-ethyl-N-(3-fluoro-4-((5-phenyl-7H-pyrrolo[2,3-d]pyrimidin-4-yl)oxy)phenyl)-1,2-dimethyl-4-oxo-1,4-dihydroquinoline-3-carboxamide], the “Inhibition rate (%)” value in test [2] (compound 10 nM, 0.01 µM) was found to be 41.9%; in test [2] (compound 100 nM, 0.1 µM) it was 70.4%; in test [2] (compound 1000 nM, 1 µM) it was 80.7%. The inhibition at 0.01 µM in test [2] (compound 10 nM) worked out at 48.7%. Further, the inhibition at 0.1 µM in test [2] (compound 100 nM) was found to be 76.3%. The inhibition at 1 µM in test [2] (compound 1000 nM) was found to be 86.6%.

For `CCc1ccc2c(c1)c(=O)c(C(=O)Nc1ccc(Oc3ncnc4cc(OCCCN5CCN(C)CC5)c(OC)cc34)c(F)c1)c(C)n2C` [GDL5000138, 6-ethyl-N-(3-fluoro-4-(6-methoxy-7-(3-(4-methylpiperazin-1-yl)propoxy)quinazolin-4-yloxy)phenyl)-1,2-dimethyl-4-oxo-1,4-dihydroquinoline-3-carboxamide], the IC50 in test [1] is 3.9 ± 2.9 nM; in test [3] it was below 2 nM. The “Inhibition rate (%)” value in test [2] (compound 10 nM, 0.01 µM) was 66.4%; in test [2] (compound 100 nM, 0.1 µM), 83.0%; in test [2] (compound 1000 nM, 1 µM) it was 98.1%. In addition, the inhibition at 0.01 µM in test [2] (compound 10 nM) worked out at 67.7%. The inhibition at 0.1 µM in test [2] (compound 100 nM) amounted to 81.5%. Besides, the inhibition at 1 µM in test [2] (compound 1000 nM) was 98%.

Consider `CCc1ccc2c(c1)c(=O)c(C(=O)Nc1ccc(Oc3ncnc4cc(OCCCN5CCOCC5)c(OC)cc34)c(F)c1)c(C)n2C` [GDL5000123, 6-ethyl-N-(3-fluoro-4-((6-methoxy-7-(3-morpholinopropoxy)quinazolin-4-yl)oxy)phenyl)-1,2-dimethyl-4-oxo-1,4-dihydroquinoline-3-carboxamide], for which the IC50 in test [1] turned out to be 3.5 ± 3.2 nM; in test [3], 51.7 ± 17.6 nM. Moreover, the “Inhibition rate (%)” value in test [2] (compound 10 nM, 0.01 µM) came out at 74.8%; in test [2] (compound 100 nM, 0.1 µM), 83.8%; in test [2] (compound 1000 nM, 1 µM), 97.4%. The inhibition at 0.01 µM in test [2] (compound 10 nM) is 75.4%. Also, the inhibition at 0.1 µM in test [2] (compound 100 nM) worked out at 89.3%. Besides, the inhibition at 1 µM in test [2] (compound 1000 nM) is 104%.

`CCc1ccc2c(c1)c(=O)c(C(=O)Nc1ccc(Oc3ncnc4cc(OCCN(C)C)c(OC)cc34)c(F)c1)c(C)n2C` [GDL5000128, N-(4-(7-(2-(dimethylamino)ethoxy)-6-methoxyquinazolin-4-yloxy)-3-fluorophenyl)-6-ethyl-1,2-dimethyl-4-oxo-1,4-dihydroquinoline-3-carboxamide]: the figures for the IC50 in test [1] and in test [3] were 50.2 ± 9.9 nM and 57.3 ± 10.4 nM, respectively. Moreover, the “Inhibition rate (%)” value was determined as 71.7% in test [2] (compound 10 nM, 0.01 µM) and 79.5% in test [2] (compound 100 nM, 0.1 µM). Moreover, the inhibition at 0.01 µM in test [2] (compound 10 nM) was 59.1%. The inhibition at 0.1 µM in test [2] (compound 100 nM) was 75.4%. The inhibition at 1 µM in test [2] (compound 1000 nM) came out at 87.9%.

As for `CCc1ccc2c(c1)c(=O)c(C(=O)Nc1ccc(Oc3ncnc4cc(OC)c(OC)cc34)c(F)c1)c(C)n2C` [TL4800191, N-(4-(6,7-dimethoxyquinazolin-4-yloxy)-3-fluorophenyl)-6-ethyl-1,2-dimethyl-4-oxo-1,4-dihydroquinoline-3-carboxamide], the results for the 50% inhibitory concentration (IC50) in test [1] and in test [3] were 102 ± 10.9 nM and 194 ± 104 nM, respectively. The “Inhibition rate (%)” value in test [2] (compound 10 nM, 0.01 µM) is reported as 67.0%; in test [2] (compound 100 nM, 0.1 µM), 77.1%; in test [2] (compound 1000 nM, 1 µM), 83.2%. In addition, the inhibition at 0.01 µM in test [2] (compound 10 nM) worked out at 70.7%. In test [2] (compound 100 nM), the inhibition at 0.1 µM was 86.4%. Further, in test [2] (compound 1000 nM), the inhibition at 1 µM was 84.7%.
